Results reported in US5075335A, “Guanidinobenzoic ester derivative” (Eisai Co., Ltd., priority 1985, dated 1991).

Key:
Format in all cases: biochemical
[1] = system: trypsin; experiment: Trypsin inhibition in vitro (hydrolysis of benzoyl-D,L-arginine-p-nitroanilide hydrochloride); conditions: 0.5 μg/ml of trypsin, 25° C, read-out: 50% Inhibitory concentration (IC50) Trypsin
Method: (§1) The effects of typical compounds of the present invention in inhibiting trypsin, plasmin and thrombin in vitro were examined. The trypsin-inhibiting effect was represented in terms of a molar concentration of the compound which inhibits the activity of 0.5 μg/ml of trypsin to hydrolyze benzoyl-D,L-arginine-p-nitroanilide hydrochloride by 50% at 25° C. In the determination of the plasmin- and thrombin-inhibiting effects, 50% inhibitory concentrations were determined by using H-D-Val-Leu-L-Lys-p-nitroanilide dihydrochloride and H-D-Phe-L-pipecolyl-L-Arg-p-nitroanilide dihydrochloride, respectively, as the substrate.

[2] = target: plasmin (Homo sapiens, UniProt P00747); experiment: Plasmin inhibition in vitro (substrate H-D-Val-Leu-L-Lys-p-nitroanilide dihydrochloride); conditions: read-out: 50% Inhibitory concentration (IC50) Plasmin
Method: as §1

[3] = target: thrombin (Homo sapiens, UniProt P00734); experiment: Thrombin inhibition in vitro (substrate H-D-Phe-L-pipecolyl-L-Arg-p-nitroanilide dihydrochloride); conditions: read-out: 50% Inhibitory concentration (IC50) Thrombin
Method: as §1

Chain of plasmin (P00747 581-810 limits assumed, species assumed): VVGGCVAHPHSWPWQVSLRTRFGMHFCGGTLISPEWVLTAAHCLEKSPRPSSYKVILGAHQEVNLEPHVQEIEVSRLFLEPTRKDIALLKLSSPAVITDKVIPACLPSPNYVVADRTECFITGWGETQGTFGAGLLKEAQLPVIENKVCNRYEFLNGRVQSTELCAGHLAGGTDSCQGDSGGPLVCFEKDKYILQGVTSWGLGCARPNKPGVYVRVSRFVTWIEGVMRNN
Chain of plasmin (P00747 97-580 partner limits assumed, species assumed): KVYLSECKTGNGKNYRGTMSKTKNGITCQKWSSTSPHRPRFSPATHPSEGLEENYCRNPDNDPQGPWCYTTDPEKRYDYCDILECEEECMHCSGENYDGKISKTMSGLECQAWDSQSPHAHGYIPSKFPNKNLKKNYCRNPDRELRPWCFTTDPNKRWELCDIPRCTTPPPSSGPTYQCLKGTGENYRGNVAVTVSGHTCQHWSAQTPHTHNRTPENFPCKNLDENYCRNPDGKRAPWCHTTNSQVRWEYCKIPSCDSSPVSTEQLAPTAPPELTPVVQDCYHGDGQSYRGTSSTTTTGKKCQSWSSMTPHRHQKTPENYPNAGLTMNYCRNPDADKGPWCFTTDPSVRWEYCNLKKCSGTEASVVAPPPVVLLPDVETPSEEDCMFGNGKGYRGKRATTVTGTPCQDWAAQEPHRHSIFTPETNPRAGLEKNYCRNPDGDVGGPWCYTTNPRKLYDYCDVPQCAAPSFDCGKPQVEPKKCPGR

Row | SMILES | IC50 [1] [nM] | IC50 [2] [nM] | IC50 [3] [nM]
1 | N=C(N)Nc1ccc(C(=O)Oc2ccc(SCCO)cc2)cc1 [A, 4-(2-hydroxyethylthio)phenyl 4-guanidinobenzoate methanesulfonate] | 43 | 1300 | 250
2 | N=C(N)Nc1ccc(C(=O)Oc2ccc(SCCN3C(=O)CCC3=O)cc2)cc1 [B, 4-(2-succinimidoethylthio)phenyl 4-guanidinobenzoate methanesulfonate] | 47 | 950 | 530
3 | CCOCCSc1ccc(OC(=O)c2ccc(NC(=N)N)cc2)cc1 [C, 4-(2-ethoxyethylthio)phenyl 4-guanidinobenzoate methanesulfonate] | 45 | 2200 | 350
4 | N=C(N)Nc1ccc(C(=O)Oc2ccc(SCCCN3C(=O)CCC3=O)cc2)cc1 [D, 4-(3-succinimidopropylthio)phenyl 4-guanidinobenzoate methanesulfonate] | 59 | 1300 | 420
5 | N=C(N)Nc1ccc(C(=O)Oc2ccc(SCCCCN3C(=O)CCC3=O)cc2)cc1 [E, 4-(4-succinimidobutylthio)phenyl 4-guanidinobenzoate methanesulfonate] | 22 | 2300 | 570
6 | N=C(N)Nc1ccc(C(=O)Oc2ccc(SCCCCCN3C(=O)CCC3=O)cc2)cc1 [F, 4-(5-succinimidopentylthio)phenyl 4-guanidinobenzoate methanesulfonate] | 34 | 640 | 270
7 | N=C(N)Nc1ccc(C(=O)Oc2ccc(SCCN3C(=O)[C@H]4CCCC[C@H]4C3=O)cc2)cc1 [G, 4-[2-(cis-1,2-cyclohexanedicarboxyimido)-ethylthio]phenyl 4-guanidinobenzoate methanesulfonate] | 62 | 1000 | 160
8 | N=C(N)Nc1ccc(C(=O)Oc2ccc(SCCN3C(=O)c4ccccc4C3=O)cc2)cc1 [H, 4-(2-phthalimidoethylthio)phenyl 4-guanidinobenzoate methanesulfonate] | 30 | 920 | 110
9 | CC1(C)OC(=O)N(CCSc2ccc(OC(=O)c3ccc(NC(=N)N)cc3)cc2)C1=O [I, 4-[2-(5,5-dimethyl-2,4-dioxooxazolidin-3-yl)ethylthio]phenyl 4-guanidinobenzoate methanesulfonate] | 55 | 830 | 320
